One series deals with KRAS G12C-SOS1 (Homo sapiens (Human), UniProt Q07889). Put plainly: Inhibition test of compounds on KRAS G12C::SOS1 binding. As to conditions: GST-KRAS G12C, His-SOS1. On the procedure:
The compound to be tested was prepared into a 10 mM stock solution with DMSO, and the compound was serially diluted using 1× test buffer. 0.1 μL of the compound solution with different concentrations was transferred to a 384-well plate. […] 5 μL of His-SOS1 was added to the 384-well plate, centrifuged at 1000 rpm for 1 min, and incubated at room temperature for 15 min.
After incubation, 10 μL of a mixed solution of anti-6his-Tb monoclonal antibody (Cisbio, Cat. No. 61HI2TLA) and anti-GST-XL665 monoclonal antibody (Cisbio, Cat. No. 61GSTXLA) was added to the test well, centrifuged at 1000 rpm for 1 min, and incubated at room temperature for 1 h.
After incubation, the fluorescence signal ratios at 665 nm and 615 nm were read on a multifunctional microplate reader (Perkin Elmer, Envision 2104), and the IC50 values were calculated using Graphpad 5 software.

Series [1] deals with ERK phosphorylation level in DLD-1 cells. As to the kind of experiment: Inhibition of ERK phosphorylation level in DLD-1 cells (intracellular western blot). In kind it is cell-based. As to conditions: Homo sapiens. As for the experimental part: Intracellular western blot quantitative analysis was used to detect the inhibitory level of compounds on ERK phosphorylation in DLD-1 cells.
DLD-1 cells (ATCC, CCL-221) were seeded in a T75 culture flask at 2.5×10^6 cells/flask and cultured in a RPMI 1640 medium containing 10% FBS for 2 days. On day 3, the cells were seeded on a 384-well plate, and cultured overnight at 37° C., 5% CO2. After overnight culture, the plate was added with serially diluted compounds (the final content of DMSO was 0.5%), the negative group was added with DMSO, and incubated in a 37° C., 5% CO2 incubator.
The cells were fixed, washed once with PBS, treated to disrupt membranes, and blocked at room temperature for 1 h. The blocking solution was removed. The plate was added with primary antibody (CST, Cat. No. #4370S), and incubated overnight at 4° C. The plate was washed 3 times with PBST (PBS solution added with 0.05% Tween-20) and soaked for 2 min each time. The plate was added with secondary antibody (LI-COR, Cat. No. 926-32211) and incubated at room temperature in the dark. The plate was washed 3 times with PBST and soaked for 2 min each time. The plate was centrifuged at 1000 rpm for 1 min, scanned on a two-color infrared laser imaging system (Odyssey® CLX) to read the signal.
Relative signal=800-channel signal values/700-channel signal values.
Relative expression level of ERK phosphorylation=(test compound−control compound I)/(DMSO group−control compound I)
(§1) IC50 values were calculated using Graphpad 5 software.

The test system of another series is H358 cells. Put plainly: Inhibition of 3D cell proliferation (3D CellTiter-Glo). As to conditions: Homo sapiens, NCI-H358, 168 h, read-out: IC50 (nM), inhibition of 3D proliferation of H358 cells, 7 days. In kind it is cell-based. On the procedure: H358 cells were seeded in a T75 culture flask and cultured in a RPMI 1640 medium containing 10% FBS for 2 days for subsequent experiments in which the cells would be cultured or seeded on a 384-well plate.
On day 1, the cells were seeded on the 384-well plate, with 40 μL of medium added per well and serially diluted compounds or DMSO added per well, and an additional well without seeded cells but with medium was set up as a blank control. After culture at 37° C., 5% CO2 for 7 days, the plate was added with 3D CellTiter-Glo reagent (Promega, Cat. No. G9683) on day 8, shaken at 320 rpm for 20 min, and left at room temperature for 2 h. Luminescence signals were read on a multifunctional microplate reader. Cell viability inhibition rate was calculated as:
Cell viability inhibition rate=(DMSO group−test compound)/(DMSO group−blank control group)×100%
as §1
(In general: In ATP-based viability assays light output follows the ATP content of the culture.)

The next series has as its target CYP3A4 (Homo sapiens (Human), UniProt P08684). As to the kind of experiment: Inhibition test on cytochrome P450 subtype CYP3A4. In kind it is in vitro ADME. As to conditions: at 10 μM, compared with the control compound I. On the procedure:
The inhibitory potential of compounds on cytochrome P450 (CYP450) subtype CYP3A4 (two substrates of midazolam and testosterone) was detected. First, the compound to be tested was prepared into a 10 mM stock solution in DMSO solvent, and the CYP3A4 inhibitor ketoconazole was prepared as 10 mM, 2.5 mM and 2.5 mM stock solutions in DMSO solvent. The test compound and ketoconazole were diluted to 400-fold final concentration (compound: 10 μM, ketoconazole: 2.5 μM) with acetonitrile.
NADPH cofactor (10 mL of potassium phosphate buffer added with 66.7 mg NADPH) at 4-fold final concentration and substrates were prepared with potassium phosphate buffer (0.1 M, pH=7.4), with CYP3A4 substrate midazolam at a final concentration of […] and CYP3A4 substrate testosterone at a final concentration of 20 μM.
A human liver microsome solution at a concentration of 0.2 mg/mL was prepared with potassium phosphate buffer on ice. A solution of the compound to be tested and a control inhibitor (control compound) solution at 2-fold final concentration were prepared with the human liver microsome solution on ice. The test wells were added with […] of the test compound solution and the control inhibitor solution respectively, and then added with […] of the substrate for duplication. A 96-well assay plate and a NADPH solution were incubated at 37° C. for 5 min, and 15 μL of pre-heated 8 mM NADPH solution was added to the assay plate to initiate the reaction. A CYP3A4 assay plate was pre-incubated at 37° C. for 5 min. The plate was added with 120 μL of acetonitrile to terminate the reaction, and after quenching, the plate was shaken on a shaker (IKA, MTS 2/4) for 10 min (600 rpm/min), and then centrifuged for 15 min. After centrifugation, the supernatant was collected, and added with purified water in a ratio of 1:1 to perform LC-MS/MS detection. A ratio of a peak area of compound to a peak area of internal standard was obtained, and the peak area ratio of the compound was compared with the peak area ratio of the control inhibitor to calculate the inhibition rate.

Series [2] has as its system Mia Paca-2 pancreatic cancer. Put plainly: Mia Paca-2 pancreatic cancer in vivo efficacy test. Also noted: species or system mice. Conditions: Mia Paca-2, 0.125 mg/kg BID. As for the experimental part:
After one week of adaptive feeding of mice, Mia Paca-2 cells in a log phase were resuspended in serum-free DMEM, and then mixed with Matrigel in a ratio of 1:1.1×10^7 Mia Paca-2 cells were inoculated subcutaneously at the right flank at 100 μL per mouse, and tumor growth was observed regularly. When the tumor grew to an average volume of 150 to 200 mm^3, the mice were randomly divided into a model group and an administration group (single drug, in combination with trametinib) based on the tumor size and body weight. The tumor size and body weight were measured and recorded before and during the administration. After the treatment, the tumor size in the model group was compared with that in the administration group to determine the efficacy.

Series [3] can be described thus: Pharmacokinetic test in mice. The format is in vivo. As to conditions: mouse, plasma; male ICR mice, oral gavage, 10 mg/kg. On the procedure:
Male ICR mice (20 to 25 g) were used and fasted overnight. Three mice were taken and orally administered by gavage (10 mg/kg). Blood was collected before the administration, and at 15 min, 30 min, 1 h, 2 h, 4 h, 8 h and 24 h after the administration. 6,800 g of the blood samples were centrifuged at 2 to 8° C. for 6 min, and plasma was collected and stored at −80° C. The plasma at each time point was taken and added with an acetonitrile solution containing internal standard in 3 to 5 times the amount, vortexed and mixed for 1 min, and centrifuged at 13,000 rpm/min at 4° C. for 10 min. The supernatant was collected, added with water in 3 times the amount, and mixed. An appropriate amount of the mixture was taken for LC-MS/MS analysis. The main pharmacokinetic parameters were analyzed using WinNonlin 7.0 software with non-compartmental model.

KRAS G12C-SOS1, sequence (Q07889 whole entry, stated change not applied): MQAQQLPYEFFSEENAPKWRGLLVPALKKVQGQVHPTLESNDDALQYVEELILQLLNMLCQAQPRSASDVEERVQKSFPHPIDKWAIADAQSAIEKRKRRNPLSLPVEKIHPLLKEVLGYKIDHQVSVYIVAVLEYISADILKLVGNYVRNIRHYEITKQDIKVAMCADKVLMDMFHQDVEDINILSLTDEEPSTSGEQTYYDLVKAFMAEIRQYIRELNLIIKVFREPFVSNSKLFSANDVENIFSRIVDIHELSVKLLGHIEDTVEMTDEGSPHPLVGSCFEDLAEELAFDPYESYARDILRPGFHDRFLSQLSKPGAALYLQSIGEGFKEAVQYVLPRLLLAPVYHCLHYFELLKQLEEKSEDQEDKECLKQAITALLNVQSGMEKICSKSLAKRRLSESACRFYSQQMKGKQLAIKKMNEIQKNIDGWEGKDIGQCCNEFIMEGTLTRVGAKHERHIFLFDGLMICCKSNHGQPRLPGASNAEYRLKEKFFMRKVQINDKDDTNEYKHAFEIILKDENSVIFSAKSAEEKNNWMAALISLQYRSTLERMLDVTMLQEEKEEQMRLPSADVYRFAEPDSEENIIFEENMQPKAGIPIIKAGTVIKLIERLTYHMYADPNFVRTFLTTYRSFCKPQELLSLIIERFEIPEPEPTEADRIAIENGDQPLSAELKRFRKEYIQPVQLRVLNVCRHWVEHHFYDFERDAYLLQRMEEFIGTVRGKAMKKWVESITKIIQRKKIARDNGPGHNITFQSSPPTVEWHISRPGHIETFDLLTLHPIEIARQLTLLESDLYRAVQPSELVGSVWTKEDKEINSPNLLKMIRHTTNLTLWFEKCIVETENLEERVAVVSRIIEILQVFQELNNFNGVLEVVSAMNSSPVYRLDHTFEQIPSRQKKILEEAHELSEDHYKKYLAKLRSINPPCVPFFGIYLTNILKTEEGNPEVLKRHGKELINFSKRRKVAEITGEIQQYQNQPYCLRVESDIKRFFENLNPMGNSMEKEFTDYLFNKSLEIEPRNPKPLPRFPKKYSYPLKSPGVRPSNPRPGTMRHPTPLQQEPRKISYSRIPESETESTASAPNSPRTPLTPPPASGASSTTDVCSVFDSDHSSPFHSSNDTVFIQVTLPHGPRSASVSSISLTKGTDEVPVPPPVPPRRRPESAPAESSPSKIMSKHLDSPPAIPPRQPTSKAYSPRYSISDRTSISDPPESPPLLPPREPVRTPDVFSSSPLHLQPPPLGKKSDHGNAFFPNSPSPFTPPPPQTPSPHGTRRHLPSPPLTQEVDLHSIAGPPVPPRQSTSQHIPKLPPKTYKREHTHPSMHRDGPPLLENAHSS
CYP3A4, sequence (P08684 whole entry): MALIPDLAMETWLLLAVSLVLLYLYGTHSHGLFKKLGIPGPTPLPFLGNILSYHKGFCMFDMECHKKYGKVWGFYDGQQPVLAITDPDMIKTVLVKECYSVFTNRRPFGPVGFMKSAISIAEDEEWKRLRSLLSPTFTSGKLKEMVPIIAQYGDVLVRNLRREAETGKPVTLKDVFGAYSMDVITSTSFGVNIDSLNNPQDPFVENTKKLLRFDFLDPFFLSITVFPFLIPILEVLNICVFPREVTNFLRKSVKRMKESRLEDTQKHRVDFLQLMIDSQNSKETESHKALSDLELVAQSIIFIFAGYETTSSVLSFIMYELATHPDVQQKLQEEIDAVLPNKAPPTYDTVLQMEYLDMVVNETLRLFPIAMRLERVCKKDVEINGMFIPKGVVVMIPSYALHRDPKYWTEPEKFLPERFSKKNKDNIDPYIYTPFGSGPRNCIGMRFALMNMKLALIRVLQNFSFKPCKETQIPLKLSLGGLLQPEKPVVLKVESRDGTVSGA

On to `Cc1nc(N[C@H](C)c2cccc(OC(F)F)c2F)c2cn(C3(C(F)F)CC3)c(=O)cc2n1` [Compound I-12, (R)-4-((1-(3-(difluoromethoxy)-2-fluorophenyl)ethyl)amino)-6-(1-(difluoromethyl)cyclopropyl)-2-methylpyrido[4,3-d]pyrimidin-7(6H)-one], for which the IC50 came to 22.2 nM on KRAS G12C-SOS1 and 196 nM in series [1].
As to `CC(=O)N1CCC(C)(n2cc3c(N[C@H](C)c4cccc(S(F)(F)(F)(F)F)c4)nc(C)nc3cc2=O)CC1` [Compound I-17, (R)-6-(1-acetyl-4-methylpiperidin-4-yl)-2-methyl-4-((1-(3-(pentafluorosulfanyl)phenyl)ethyl)amino)pyrido[4,3-d]pyrimidin-7(6H)-one], the results for the IC50 (in series [1]; in the series on H358 cells) were 119 nM and 12.1 nM, respectively.
With `Cc1nc(N[C@H](C)c2cccc(S(F)(F)(F)(F)F)c2)c2cn(C3(CF)CC3)c(=O)cc2n1` [Compound I-3, (R)-6-(1-(fluoromethyl)cyclopropyl)-2-methyl-4-((1-(3-(pentafluorosulfanyl)phenyl)ethyl)amino)pyrido[4,3-d]pyrimidin-7(6H)-one], the “inhibitory effect on CYP3A4 enzymes (in words)” value on CYP3A4 is listed as “more significant inhibitory effect”.
On to `Cc1nc(N[C@H](C)c2cccc(S(F)(F)(F)(F)F)c2)c2cn(C3(C)CCOC3)c(=O)cc2n1` (stereo partly drawn) [Compound I-20, 2-methyl-6-(3-methyltetrahydrofuran-3-yl)-4-(((R)-1-(3-(pentafluorosulfanyl)phenyl)ethyl)amino)pyrido[4,3-d]pyrimidin-7(6H)-one], for which the results for the IC50 (in series [1]; in the series with H358 cells) were 92 nM and 31 nM, respectively.
In the case of `Cc1nc(N[C@H](C)c2cccc(S(F)(F)(F)(F)F)c2)c2cn([C@H]3C[C@](C)(O)C3)c(=O)cc2n1` [Compound I-15, 6-((1r,3R)-3-hydroxy-3-methylcyclobutyl)-2-methyl-4-(((R)-1-(3-(pentafluorosulfanyl)phenyl)ethyl)amino)pyrido[4,3-d]pyrimidin-7(6H)-one], the IC50 on KRAS G12C-SOS1 is 14.4 nM.
With `Cc1nc(N[C@H](C)c2cccc(S(F)(F)(F)(F)F)c2)c2cn([C@H]3C[C@H](F)C3)c(=O)cc2n1` [Compound I-19, 6-((1R,3R)-3-fluorocyclobutyl)-2-methyl-4-(((R)-1-(3-(pentafluorosulfanyl)phenyl)ethyl)amino)pyrido[4,3-d]pyrimidin-7(6H)-one], the results for the IC50 (at KRAS G12C-SOS1; in series [1]; in the series with H358 cells) were 9.5 nM, 131 nM and 137 nM, respectively.
For `COCC1(n2cc3c(N[C@H](C)c4cccc(S(F)(F)(F)(F)F)c4)nc(C)nc3cc2=O)CC1` [Compound I-13, (R)-6-(1-(methoxymethyl)cyclopropyl)-2-methyl-4-((1-(3-(pentafluorosulfanyl)phenyl)ethyl)amino)pyrido[4,3-d]pyrimidin-7(6H)-one], the values for the IC50 (in series [1]; with H358 cells) were 109 nM and 15.7 nM, respectively.
Take `Cc1nc(N[C@H](C)c2cccc(S(F)(F)(F)(F)F)c2)c2cn(C3(C)CCOCC3)c(=O)cc2n1` [Compound I-21, (R)-2-methyl-6-(4-methyltetrahydro-2H-pyran-4-yl)-4-((1-(3-(pentafluorosulfanyl)phenyl)ethyl)amino)pyrido[4,3-d]pyrimidin-7(6H)-one]: the IC50 was determined as 6.9 nM at KRAS G12C-SOS1, 141 nM in series [1] and 85.1 nM with H358 cells.
For the molecule `CC(=O)Nc1cccc(-n2c(=O)n(C3CC3)c(=O)c3c(Nc4ccc(I)cc4F)n(C)c(=O)c(C)c32)c1` [Trametinib, reference compound], the “Tumor weight inhibition rate (relative to the vehicle group)” value in series [2] was found to be 80%.
In general, AUC(0-t) refers to the area under the concentration-time curve up to a stated or last time point. A higher AUC(0-t) goes with high exposure. Broadly, the Cmax is the maximum level reached in the sampled fluid or tissue. As usually defined, the Tmax is the time from dosing to the highest level. For orientation: half-life means the time needed for the level to fall by half in the phase considered. High values mean slow decline, low ones rapid decline. Take `Cc1nc(N[C@H](C)c2cccc(C(F)F)c2F)c2cn(C3(C(F)F)CC3)c(=O)cc2n1` [Control compound II, reference compound]: in series [3], the AUC(0-t) turned out to be 1000 ng·h/mL, the Cmax is 669 ng/mL, the Tmax amounted to 30 min and the half-life was 57.6 min.
Turning to `Cc1nc(N[C@H](C)c2cccc(S(F)(F)(F)(F)F)c2)c2cn(C3(C)CC3)c(=O)cc2n1` [Compound I-22, (R)-2-methyl-6-(1-methylcyclopropyl)-4-((1-(3-(pentafluorosulfanyl)phenyl)ethyl)amino)pyrido[4,3-d]pyrimidin-7(6H)-one], the IC50 was 21.7 nM at KRAS G12C-SOS1 and 10.7 nM with H358 cells.
As to `CC(=O)N1CCC(C)(n2cc3c(N[C@H](C)c4cccc(S(F)(F)(F)(F)F)c4)nc(C)nc3cc2=O)C1` (stereo partly drawn) [Compound I-18, 6-(1-acetyl-3-methylpyrrolidin-3-yl)-2-methyl-4-(((R)-1-(3-(pentafluorosulfanyl)phenyl)ethyl)amino)pyrido[4,3-d]pyrimidin-7(6H)-one], the IC50 in series [1] amounted to 115 nM; in the series with H358 cells, 9.2 nM.
On KRAS G12C-SOS1, `Cc1nc(N[C@H](C)c2cccc(S(F)(F)(F)(F)F)c2)c2cn(C3CC(F)(F)C3)c(=O)cc2n1` [Compound I-16, (R)-6-(3,3-difluorocyclobutyl)-2-methyl-4-((1-(3-(pentafluorosulfanyl)phenyl)ethyl)amino)pyrido[4,3-d]pyrimidin-7(6H)-one] displayed an IC50 of 16.1 nM.

The values are drawn from patent US20240166645A1, “PYRIDOPYRIMIDINONE DERIVATIVE, PREPARATION METHOD THEREFOR, AND USE THEREOF” (Wuhan Humanwell Innovative Drug Research and Development …, priority 2021, published 2024).
